Converted amounts (≈) assume the structure as drawn. Each block holds one compound with its values, some of them ahead of it.
What was measured:
Assay in all cases: ≥ marks a high value that may be exact or a test limit, other limits are often not marked, values filed in µg/mL are converted to µM
[1] = test system: Bacillus subtilis ATCC 6633
[2] = test system: Candida albicans ATCC 10231
[3] = test system: Pseudomonas aeruginosa ATCC 9027
[4] = test system: Staphylococcus epidermidis ATCC 14490
[5] = test system: Candida tropicalis PCM 2681
[6] = test system: Escherichia coli ATCC 25922
[7] = test system: Staphylococcus aureus ATCC 25923
[8] = test system: Klebsiella pneumoniae ATCC 200603
[9] = test system: Pseudomonas aeruginosa ATCC BAA-427
Staphylococcus aureus = test system: Staphylococcus aureus
[10] = test system: Klebsiella pneumoniae ATCC 27736
[11] = test system: Pseudomonas aeruginosa ATCC 10662
[12] = test system: Staphylococcus epidermidis ATCC 1435
Acinetobacter baumannii = test system: Acinetobacter baumannii
[13] = test system: Micrococcus luteus ATCC 9341
[14] = test system: Staphylococcus aureus 1550
[15] = test system: Escherichia coli ATCC 2592
[16] = test system: Staphylococcus aureus ATCC 6538
[17] = test system: Staphylococcus aureus ATCC BAA-44
[18] = test system: Salmonella enterica subsp. enterica serovar Enteritidis
[19] = test system: Enterococcus faecalis ATCC 29212
[20] = test system: Pseudomonas aeruginosa ATCC 27853
[21] = test system: Staphylococcus aureus ATCC 43300
Escherichia coli ML-35p = test system: Escherichia coli ML-35p
[22] = test system: Candida parapsilosis ATCC 22019
[23] = test system: Acinetobacter baumannii ATCC 19606
[24] = test system: Candida albicans ATCC 90028
[25] = test system: Staphylococcus aureus ST1065
Saccharomyces cerevisiae = test system: Saccharomyces cerevisiae
[26] = test system: Klebsiella pneumoniae ATCC 13883
[27] = test system: Escherichia coli ATCC 35218
Bacillus megaterium = test system: Bacillus megaterium
[28] = test system: Staphylococcus aureus AS1.72
[29] = test system: Enterococcus faecium CGMCC 1.2334
Bacillus cereus AS1.126 = test system: Bacillus cereus AS1.126
[30] = test system: Enterococcus faecalis CGMCC 1.595
Escherichia coli AS1.349 = test system: Escherichia coli AS1.349
[31] = test system: Lactococcus lactis AS1.1690
[32] = test system: Pseudomonas aeruginosa CGMCC 1.860
[33] = test system: Mycobacterium tuberculosis CSU87
[34] = test system: Mycobacterium tuberculosis 173
[35] = test system: Mycobacterium tuberculosis 212
[36] = test system: Mycobacterium tuberculosis 411
[37] = test system: Mycobacterium tuberculosis H37Rv
[38] = test system: Candida albicans CCARM 14022
[39] = test system: Candida albicans CCARM 14021
Candida albicans SC5314 = test system: Candida albicans SC5314
[40] = test system: Candida albicans CCARM 14020

Structure (SMILES): CC[C@H](C)[C@H](N)C(=O)N[C@H]1CSSC[C@@H](C(=O)N[C@H](C(=O)O)[C@@H](C)CC)NC(=O)[C@H](Cc2cnc[nH]2)NC(=O)[C@H](Cc2cnc[nH]2)NC1=O [ICHHCI]
MIC [1]: ≥ 706 µM
MIC [2]: > 706 µM
MIC [3]: > 706 µM
MIC [4]: ≥ 706 µM
MIC [5]: ≥ 706 µM
MIC [6]: > 706 µM
MIC [7]: > 706 µM
MIC [8]: ≥ 706 µM

Structure (SMILES): CC[C@H](C)[C@H](NC(=O)CNC(=O)[C@H](CCCN=C(N)N)NC(=O)[C@H](Cc1ccccc1)NC(=O)[C@@H](NC(=O)[C@H](Cc1cnc[nH]1)NC(=O)[C@H](Cc1cnc[nH]1)NC(=O)[C@H](Cc1ccccc1)NC(=O)[C@@H](N)Cc1ccccc1)[C@@H](C)CC)C(=O)N[C@H](C(=O)N[C@@H](Cc1cnc[nH]1)C(=O)N[C@H](C(=O)NCC(=O)N[C@@H](CCCCN)C(=O)N[C@H](C(=O)N[C@@H](C)C(=O)N[C@@H](Cc1cnc[nH]1)C(=O)N[C@@H](CCCN=C(N)N)C(=O)N[C@@H](CC(C)C)C(=O)N[C@H](C(=O)N[C@H](C(=O)NCC(N)=O)[C@@H](C)O)C(C)C)[C@@H](C)O)C(C)C)C(C)C [FFHHIFRGIVHVGKTAHRLVTG]
MIC [9]: 12 µM (≈ 30.3 µg/mL)
MIC (Staphylococcus aureus): 1.23 µM (≈ 3.1 µg/mL)
MIC [1]: 8 µM (≈ 20.2 µg/mL)
MIC [10]: 8 µM (≈ 20.2 µg/mL)
MIC [11]: 9.88 µM (≈ 25 µg/mL)
MIC [12]: 0.593 µM (≈ 1.5 µg/mL)
MIC (Acinetobacter baumannii): 1.23 µM (≈ 3.1 µg/mL)

Structure (SMILES): CC[C@H](C)[C@H](NC(=O)CNC(=O)[C@H](C)NC(=O)[C@H](CC(C)C)NC(=O)[C@H](C)NC(=O)[C@H](C)NC(=O)[C@@H]1CCCN1C(=O)[C@H](CC(C)C)NC(=O)[C@@H](N)Cc1ccccc1)C(=O)NCC(=O)NCC(=O)N[C@H](C(=O)N[C@@H](CC(C)C)C(=O)NCC(=O)N[C@@H](CCCCN)C(=O)N[C@@H](CC(C)C)C(=O)N[C@@H](Cc1ccccc1)C(N)=O)[C@@H](C)CC [FLPAALAGIGGILGKLF]
MIC [17]: 6.25 µM (≈ 10.4 µg/mL)
MIC [18]: ≥ 200 µM
MIC [19]: 25 µM (≈ 41.4 µg/mL)
MIC [20]: > 200 µM
MIC [21]: 6.25 µM (≈ 10.4 µg/mL)
MIC (Escherichia coli ML-35p): 25 µM (≈ 41.4 µg/mL)
MIC [6]: 5 µM (≈ 8.29 µg/mL)
MIC [22]: ≥ 200 µM
MIC [23]: 25 µM (≈ 41.4 µg/mL)
MIC [24]: ≥ 100 µM
MIC [25]: 6.25 µM (≈ 10.4 µg/mL)
MIC [7]: 6.25 µM (≈ 10.4 µg/mL)
MIC (Saccharomyces cerevisiae): 25 µM (≈ 41.4 µg/mL)
MIC [26]: ≥ 100 µM
MIC [27]: ≥ 50 µM
MIC (Bacillus megaterium): 1.56 µM (≈ 2.59 µg/mL)

Structure (SMILES): NC(N)=NCCC[C@H](NC(=O)[C@H](Cc1cnc[nH]1)NC(=O)[C@H](Cc1c[nH]c2ccccc12)NC(=O)[C@H](Cc1ccccc1)NC(=O)[C@H](CCCN=C(N)N)NC(=O)[C@H](CCCN=C(N)N)NC(=O)[C@H](Cc1c[nH]c2ccccc12)NC(=O)[C@H](Cc1cnc[nH]1)NC(=O)[C@H](CCCN=C(N)N)NC(=O)[C@@H](N)Cc1c[nH]c2ccccc12)C(=O)O [WRHWRRFWHR]
MIC [28]: ≥ 50 µM
MIC [29]: 6.25 µM (≈ 10.1 µg/mL)
MIC (Bacillus cereus AS1.126): 6.25 µM (≈ 10.1 µg/mL)
MIC [30]: 3.13 µM (≈ 5.08 µg/mL)
MIC (Escherichia coli AS1.349): 25 µM (≈ 40.6 µg/mL)
MIC [31]: 6.25 µM (≈ 10.1 µg/mL)
MIC [32]: 3.13 µM (≈ 5.08 µg/mL)

Now from value to compound:

MIC [3]: 7.94 µM (≈ 10 µg/mL)
MIC [13]: 6.35 µM (≈ 8 µg/mL)
MIC [14]: 19.8 µM (≈ 25 µg/mL)
MIC [15]: 17.5 µM (≈ 22 µg/mL)
MIC [16]: 9.92 µM (≈ 12.5 µg/mL)
Structure (SMILES): CC(C)[C@H](NC(=O)[C@H](CCCCN)NC(=O)[C@H](Cc1ccccc1)NC(=O)[C@@H](NC(=O)[C@@H](NC(=O)[C@H](CCCCN)NC(=O)[C@@H](N)CCCCN)C(C)C)C(C)C)C(=O)N[C@@H](CCCCN)C(=O)N[C@@H](Cc1ccccc1)C(=O)N[C@@H](Cc1cnc[nH]1)C(=O)O [KKVVFKVKFH]

MIC [33]: ≥ 207 µM
MIC [34]: ≥ 413 µM
MIC [35]: ≥ 413 µM
MIC [36]: ≥ 207 µM
MIC [37]: ≥ 413 µM
Structure (SMILES): CC[C@H](C)[C@H](N)C(=O)N[C@@H](CC(C)C)C(=O)N[C@@H](CC(C)C)C(=O)N[C@@H](CCCCN)C(=O)N[C@@H](CCCCN)C(=O)N[C@@H](CC(C)C)C(=O)N[C@@H](CC(C)C)C(=O)N[C@@H](CCCCN)C(=O)N[C@@H](CCCCN)C(=O)N[C@H](C(N)=O)[C@@H](C)CC [ILLKKLLKKI]

MIC [38]: 3.59 µM (≈ 5.65 µg/mL)
MIC [39]: 3.59 µM (≈ 5.65 µg/mL)
MIC (Candida albicans SC5314): 14.4 µM (≈ 22.6 µg/mL)
MIC [40]: 14.4 µM (≈ 22.6 µg/mL)
Structure (SMILES): CC(C)C[C@H](NC(=O)CNC(=O)[C@H](Cc1cnc[nH]1)NC(=O)[C@H](Cc1cnc[nH]1)NC(=O)[C@H](CCCN=C(N)N)NC(=O)[C@H](CCCCN)NC(=O)[C@H](C)N)C(=O)N[C@@H](CC(N)=O)C(=O)N[C@@H](CS)C(=O)N[C@@H](C)C(=O)N[C@@H](CCCCN)C(=O)NCC(=O)N[C@H](C(=O)N[C@@H](CC(C)C)C(=O)N[C@@H](C)C(N)=O)C(C)C [AKRHHGLNCAKGVLA]

Reference: DBAASP
